# In PubChem BioAssay (NCI):
#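 Assay format: 96-well plates, 48-hour exposure. TGI is the concentration that stops growth completely.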
# Legend:
# Assay in all cases: DTP human tumour cell line panel, 48 h
# A498 renal = system: A498 renal
# A549 NSCLC = system: A549 NSCLC
# ACHN renal = system: ACHN renal
# BT-549 breast = system: BT-549 breast
# CAKI-1 renal = system: CAKI-1 renal
# CCRF-CEM leukemia = system: CCRF-CEM leukemia
# COLO 205 colon = system: COLO 205 colon
# DU-145 prostate = system: DU-145 prostate
# EKVX NSCLC = system: EKVX NSCLC
# HCC-2998 colon = system: HCC-2998 colon
# HCT-116 colon = system: HCT-116 colon
# HCT-15 colon = system: HCT-15 colon
# HL-60(TB) leukemia = system: HL-60(TB) leukemia
# HOP-62 NSCLC = system: HOP-62 NSCLC
# HOP-92 NSCLC = system: HOP-92 NSCLC
# HS 578T breast = system: HS 578T breast
# HT29 colon = system: HT29 colon
# IGROV1 ovarian = system: IGROV1 ovarian
# KM12 colon = system: KM12 colon
# LOX IMVI melanoma = system: LOX IMVI melanoma
# M14 melanoma = system: M14 melanoma
# MALME-3M melanoma = system: MALME-3M melanoma
# MCF7 breast = system: MCF7 breast
# MDA-MB-231 breast = system: MDA-MB-231 breast
# MDA-MB-435 = system: MDA-MB-435
# MDA-N = system: MDA-N
# MOLT-4 leukemia = system: MOLT-4 leukemia
# NCI-H226 lung = system: NCI-H226 lung
# NCI-H23 lung = system: NCI-H23 lung
# NCI-H460 lung = system: NCI-H460 lung
# NCI-H522 lung = system: NCI-H522 lung
# NCI/ADR-RES ovarian = system: NCI/ADR-RES ovarian
# OVCAR-3 ovarian = system: OVCAR-3 ovarian
# OVCAR-4 ovarian = system: OVCAR-4 ovarian
# OVCAR-5 ovarian = system: OVCAR-5 ovarian
# OVCAR-8 ovarian = system: OVCAR-8 ovarian
# PC-3 prostate = system: PC-3 prostate
# RPMI-8226 leukemia = system: RPMI-8226 leukemia
# RXF 393 renal = system: RXF 393 renal
# SF-268 CNS = system: SF-268 CNS
# SF-295 CNS = system: SF-295 CNS
# SF-539 CNS = system: SF-539 CNS
# SK-MEL-2 melanoma = system: SK-MEL-2 melanoma
# SK-MEL-28 melanoma = system: SK-MEL-28 melanoma
# SK-MEL-5 melanoma = system: SK-MEL-5 melanoma
# SK-OV-3 ovarian = system: SK-OV-3 ovarian
# SN12C renal = system: SN12C renal
# SNB-19 CNS = system: SNB-19 CNS
# SNB-75 CNS = system: SNB-75 CNS
# SR leukemia = system: SR leukemia
# SW-620 colon = system: SW-620 colon
# T-47D breast = system: T-47D breast
# TK-10 renal = system: TK-10 renal
# U251 CNS = system: U251 CNS
# UACC-257 melanoma = system: UACC-257 melanoma
# UACC-62 melanoma = system: UACC-62 melanoma
# UO-31 renal = system: UO-31 renal
# 786-0 renal = system: 786-0 renal
# K-562 leukemia = system: K-562 leukemia
compound,measurement,setting,value
S=C1Cc2c(-c3ccccc3)cc(-c3ccc(Cl)cc3)nc2-c2ccccc2N1,TGI,A498 renal,4.27 µM
same,TGI,A549 NSCLC,> 33.9 µM
same,TGI,ACHN renal,2.69 µM
same,TGI,BT-549 breast,37.9 µM
same,TGI,CAKI-1 renal,3.33 µM
same,TGI,CCRF-CEM leukemia,> 100 µM
same,TGI,COLO 205 colon,> 42 µM
same,TGI,DU-145 prostate,53.1 µM
same,TGI,EKVX NSCLC,> 27.1 µM
same,TGI,HCC-2998 colon,> 36.8 µM
same,TGI,HCT-116 colon,13.7 µM
same,TGI,HCT-15 colon,> 54.7 µM
same,TGI,HL-60(TB) leukemia,> 100 µM
same,TGI,HOP-62 NSCLC,3.16 µM
same,TGI,HOP-92 NSCLC,3.53 µM
same,TGI,HS 578T breast,4.23 µM
same,TGI,HT29 colon,15.2 µM
same,TGI,IGROV1 ovarian,4.36 µM
same,TGI,KM12 colon,51.3 µM
same,TGI,LOX IMVI melanoma,> 46.8 µM
same,TGI,M14 melanoma,> 38.5 µM
same,TGI,MALME-3M melanoma,13 µM
same,TGI,MCF7 breast,> 72.6 µM
same,TGI,MDA-MB-231 breast,5.22 µM
same,TGI,MDA-MB-435,> 38.8 µM
same,TGI,MDA-N,16.2 µM
same,TGI,MOLT-4 leukemia,> 100 µM
same,TGI,NCI-H226 lung,> 31.9 µM
same,TGI,NCI-H23 lung,19.8 µM
same,TGI,NCI-H460 lung,> 100 µM
same,TGI,NCI-H522 lung,> 24.2 µM
same,TGI,NCI/ADR-RES ovarian,> 27.3 µM
same,TGI,OVCAR-3 ovarian,9.9 µM
same,TGI,OVCAR-4 ovarian,1.71 µM
same,TGI,OVCAR-5 ovarian,51.4 µM
same,TGI,OVCAR-8 ovarian,4.64 µM
same,TGI,PC-3 prostate,30.9 µM
same,TGI,RPMI-8226 leukemia,> 100 µM
same,TGI,RXF 393 renal,11.2 µM
same,TGI,SF-268 CNS,6.8 µM
same,TGI,SF-295 CNS,18.9 µM
same,TGI,SF-539 CNS,10.8 µM
same,TGI,SK-MEL-2 melanoma,20.9 µM
same,TGI,SK-MEL-28 melanoma,> 31.9 µM
same,TGI,SK-MEL-5 melanoma,> 100 µM
same,TGI,SK-OV-3 ovarian,7.26 µM
same,TGI,SN12C renal,5.26 µM
same,TGI,SNB-19 CNS,4.14 µM
same,TGI,SNB-75 CNS,3.14 µM
same,TGI,SR leukemia,> 100 µM
same,TGI,SW-620 colon,11.6 µM
same,TGI,T-47D breast,> 57.3 µM
same,TGI,TK-10 renal,8.41 µM
same,TGI,U251 CNS,2.34 µM
same,TGI,UACC-257 melanoma,22.2 µM
same,TGI,UACC-62 melanoma,> 20.7 µM
same,TGI,UO-31 renal,> 24 µM
COc1cc(OC)nc(-n2c(N)c(C(=O)O)c3ccc([N+](=O)[O-])cc3c2=O)n1,TGI,786-0 renal,> 100 µM
same,TGI,A498 renal,> 100 µM
same,TGI,A549 NSCLC,> 100 µM
same,TGI,ACHN renal,> 100 µM
same,TGI,BT-549 breast,> 100 µM
same,TGI,CAKI-1 renal,> 100 µM
same,TGI,CCRF-CEM leukemia,> 100 µM
same,TGI,COLO 205 colon,> 100 µM
same,TGI,DU-145 prostate,> 100 µM
same,TGI,EKVX NSCLC,> 100 µM
same,TGI,HCC-2998 colon,> 100 µM
same,TGI,HCT-116 colon,> 100 µM
same,TGI,HCT-15 colon,> 100 µM
same,TGI,HL-60(TB) leukemia,> 100 µM
same,TGI,HOP-62 NSCLC,> 100 µM
same,TGI,HS 578T breast,> 100 µM
same,TGI,HT29 colon,> 100 µM
same,TGI,IGROV1 ovarian,> 100 µM
same,TGI,K-562 leukemia,> 100 µM
same,TGI,KM12 colon,> 100 µM
same,TGI,LOX IMVI melanoma,> 100 µM
same,TGI,M14 melanoma,> 100 µM
same,TGI,MALME-3M melanoma,> 100 µM
same,TGI,MCF7 breast,> 100 µM
same,TGI,MDA-MB-231 breast,> 100 µM
same,TGI,MDA-MB-435,> 100 µM
same,TGI,MDA-N,> 100 µM
same,TGI,MOLT-4 leukemia,> 100 µM
same,TGI,NCI-H226 lung,> 100 µM
same,TGI,NCI-H23 lung,> 100 µM
same,TGI,NCI-H460 lung,> 100 µM
same,TGI,NCI-H522 lung,> 100 µM
same,TGI,NCI/ADR-RES ovarian,> 100 µM
same,TGI,OVCAR-3 ovarian,> 100 µM
same,TGI,OVCAR-4 ovarian,> 100 µM
same,TGI,OVCAR-5 ovarian,> 100 µM
same,TGI,OVCAR-8 ovarian,> 100 µM
same,TGI,PC-3 prostate,> 100 µM
same,TGI,RPMI-8226 leukemia,> 100 µM
same,TGI,RXF 393 renal,> 100 µM
same,TGI,SF-268 CNS,> 100 µM
same,TGI,SF-295 CNS,> 100 µM
same,TGI,SK-MEL-2 melanoma,> 100 µM
same,TGI,SK-MEL-28 melanoma,> 100 µM
same,TGI,SK-MEL-5 melanoma,> 100 µM
same,TGI,SK-OV-3 ovarian,> 100 µM
same,TGI,SN12C renal,> 100 µM
same,TGI,SNB-19 CNS,> 100 µM
same,TGI,SNB-75 CNS,> 100 µM
same,TGI,SR leukemia,> 100 µM
same,TGI,SW-620 colon,> 100 µM
same,TGI,T-47D breast,> 100 µM
same,TGI,U251 CNS,> 100 µM
same,TGI,UACC-62 melanoma,> 100 µM
same,TGI,UO-31 renal,> 100 µM
